How the values were obtained:
Pharmacokinetics in rat = assay type: in vivo
NTSR1 = NTSR1 (Homo sapiens, UniProt P30989); assay: [3H]NTS saturation binding to NTSR1-containing HEK293T cell membranes in absence and presence of SBI-553; design: expressed in transfected cells; host or cells: HEK293T cell membranes
Description: FIG. 4A-FIG. 4D show SBI-553 activates NTSR1 to stimulate β-arrestin-associated cellular responses.
Preliminary studies provided significant data for this example. SBI-553 was derived from a medicinal chemistry campaign to improve the ML314 probe series and was selected for potency, pharmacokinetic profile, and selectivity for NTSR1 over the NTSR2 (Pinkerton A B, et al. (2019) J Med Chem. 62(17):8357-8363, which is incorporated by reference for its teachings of the making of SBI-553). […] Binding specificity to NTSR1 was further confirmed by comparing membranes containing an off-target receptor (i.e., b2-adrenergic receptor) (Slosky L M, et al. (2020) Cell. 181(6):1364-1379e14). […] These findings indicate that SBI-553 is a β-arrestin-biased ligand that stimulates β-arrestin-mediated processes at NTSR1 […] without activating Gq protein signaling (FIG. 5).

[1] = global β-arrestin2 KO mice; cited from earlier work
[2] = Plantar incision-induced post-operative pain (mechanical allodynia) in WT and Arrb2 KO mice; assay type: in vivo; conditions: 12 mg/kg IP

Sequence of NTSR1 (P30989 whole entry): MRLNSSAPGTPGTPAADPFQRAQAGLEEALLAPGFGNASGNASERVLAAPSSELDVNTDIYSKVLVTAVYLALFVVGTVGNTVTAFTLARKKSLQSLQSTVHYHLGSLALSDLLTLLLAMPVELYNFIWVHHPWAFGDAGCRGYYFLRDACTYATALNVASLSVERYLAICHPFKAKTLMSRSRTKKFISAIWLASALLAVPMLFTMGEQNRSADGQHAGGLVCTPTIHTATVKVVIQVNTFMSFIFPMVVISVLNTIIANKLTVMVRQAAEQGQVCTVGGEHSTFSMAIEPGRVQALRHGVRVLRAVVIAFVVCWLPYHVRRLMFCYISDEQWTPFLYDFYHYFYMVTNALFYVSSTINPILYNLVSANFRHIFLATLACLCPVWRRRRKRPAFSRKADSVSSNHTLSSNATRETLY

CIp (Pharmacokinetics in rat; 5 mpk iv (printed tv)): 4.86 L/h/kg | Vd (Pharmacokinetics in rat; 5 mpk iv (printed tv)): 7.02 L/kg | Cmax (Pharmacokinetics in rat; 30 mpk po (pa [sic])): 3.482 µg/mL | T2/2 (Pharmacokinetics in rat; 30 mpk po (pa [sic])): 2.23 h | Kp at 1 h (Pharmacokinetics in rat; brain, 30 mg/kg, 30 mpk po (pa [sic]), 1 h, read-out: brain:plasma @ 1 h): 0.98 | bioavailability (Pharmacokinetics in rat; plasma, 30 mg/kg, 5 mpk iv and 30 mpk po): 48% | AUC (Pharmacokinetics in rat; route not marked): 2.693 µg·h/mL | Effect on total [3H]NTS binding (NTSR1): increased | Increase of NTS affinity for NTSR1 (Kd) (NTSR1; dose-dependent): up to 3.9 fold | Increase of number of available [3H]NTS binding sites (Bmax) (NTSR1; dose-dependent): up to 3.3 fold
Compound: COc1ccccc1C1CCN(c2nc(C3(F)CC3)nc3ccc(N(C)CCO)cc23)CC1 [SBI-553]
Significant reduction in locomotion [1]: absent | Duration of analgesic effect [2]: more than 4.5 hr | Time after injection at which analgesic effect was observed [2]: 2 h | Plantar incision-induced mechanical allodynia ([2]; Arrb2 KO mice): not | Plantar incision-induced mechanical allodynia ([2]; WT mice): significantly reduced

Source: patent publication US20240398806A1, “Compositions For and Methods of Treating and/or Preventing Pain” (Duke University, priority 2021, published 2024)
